Source: patent publication US4713367A, “Retro-inverso analogs of the bradykinin potentiating peptide BPP5a” (Enichem S.p.A., priority 1986, dated 1987)
pIC50: −log10 of the molar value. *1 amine or outer side, *2 acyl side, *3 side chain or, on linkers, in order; H or OH if unused. Where a SMILES comes first, the peptide text is derived from it. [ ]: non-standard residue; d: D form. X1 = O=C([C@@H]1C[C@H](Sc2ccccc2)CN1[*:1])[*:2]; pGlu = O=C1CC[C@@H](C(=O)O)N1

Key:
[1] = tested on: angiotensin converting enzyme; assay: Degradation in vitro by the angiotensin converting enzyme; assay type: in vitro ADME; conditions: in the presence of the angiotensin converting enzyme
[2] = molecular target: T1, angiotensin converting enzyme (Oryctolagus cuniculus, UniProt P12822); assay: Inhibition of the angiotensin converting enzyme (IC50); assay type: biochemical, rabbit; conditions: for pIC50: enzyme isolated from rabbit lungs (Cushman and Cheung)
T1 construct: The enzyme employed in this test has been isolated from rabbit lungs; from tissue; host or cells: rabbit lungs
T1 sequence (P12822 34-1310): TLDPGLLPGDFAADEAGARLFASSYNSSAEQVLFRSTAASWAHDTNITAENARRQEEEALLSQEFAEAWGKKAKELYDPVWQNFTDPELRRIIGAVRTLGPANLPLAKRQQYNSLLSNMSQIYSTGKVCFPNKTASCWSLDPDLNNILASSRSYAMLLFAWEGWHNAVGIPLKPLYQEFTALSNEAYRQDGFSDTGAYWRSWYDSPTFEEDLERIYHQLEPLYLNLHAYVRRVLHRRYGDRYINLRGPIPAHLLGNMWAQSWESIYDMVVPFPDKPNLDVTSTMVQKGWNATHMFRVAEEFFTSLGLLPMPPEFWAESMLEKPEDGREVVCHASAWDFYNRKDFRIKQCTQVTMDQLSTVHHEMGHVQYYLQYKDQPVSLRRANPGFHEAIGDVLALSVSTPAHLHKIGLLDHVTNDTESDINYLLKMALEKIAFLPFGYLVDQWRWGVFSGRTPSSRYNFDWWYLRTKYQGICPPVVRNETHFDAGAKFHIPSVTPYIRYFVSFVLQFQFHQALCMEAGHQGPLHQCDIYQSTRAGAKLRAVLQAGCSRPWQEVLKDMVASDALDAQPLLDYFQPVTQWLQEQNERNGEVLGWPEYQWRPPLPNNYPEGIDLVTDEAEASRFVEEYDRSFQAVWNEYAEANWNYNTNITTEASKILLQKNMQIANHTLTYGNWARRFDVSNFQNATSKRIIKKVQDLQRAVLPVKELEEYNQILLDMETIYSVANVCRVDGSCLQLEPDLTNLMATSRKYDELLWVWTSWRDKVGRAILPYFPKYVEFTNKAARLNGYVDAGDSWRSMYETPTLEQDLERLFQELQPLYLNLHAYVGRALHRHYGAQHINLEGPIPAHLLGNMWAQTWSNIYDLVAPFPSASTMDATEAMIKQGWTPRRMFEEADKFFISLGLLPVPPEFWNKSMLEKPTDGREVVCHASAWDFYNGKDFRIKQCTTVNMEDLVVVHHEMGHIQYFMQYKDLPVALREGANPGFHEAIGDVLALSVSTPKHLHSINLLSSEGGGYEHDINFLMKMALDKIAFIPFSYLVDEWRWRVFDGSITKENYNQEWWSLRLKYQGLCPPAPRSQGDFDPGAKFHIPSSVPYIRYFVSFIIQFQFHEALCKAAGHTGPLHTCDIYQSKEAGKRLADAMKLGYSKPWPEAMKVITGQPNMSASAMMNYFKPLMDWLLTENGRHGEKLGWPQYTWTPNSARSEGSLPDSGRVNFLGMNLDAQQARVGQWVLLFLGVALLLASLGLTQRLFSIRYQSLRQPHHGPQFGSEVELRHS
Description: In particular, comparative experiments carried out […] in order to evaluate the ACE inhibitory activity of the compounds of the present invention gave the results reported in following table I (IC50 represents the concentration of the test compound, in μM, which inhibits the angiotensin converting enzyme by 50%. The enzyme employed in this test has been isolated from rabbit lungs according to the method by Cushman and Cheung described in Biochem. Pharmacol. 20, 1637, (1971)).

[3] = induced experimentally in rats; cited from earlier work
[4] = tested on: angiotensin converting enzyme; conditions: 15 minutes of preincubation; cited from earlier work
angiotensin I = conditions: infused directly into the brain; cited from earlier work
bradykinin = bradykinin injected directly into the coronary arteries; cited from earlier work
[5] = Hypotensive effect in anesthetized normotensive rats; assay type: in vivo, rat; conditions: injected intravenously at 0.18 mg/Kg
Protocol: In vivo experiments carried out in anesthetized normotensive rats confirmed a hypotensive effect of the compounds of the invention as compound (a), when injected intravenously at a dosage of 0.18 mg/Kg, produced a blood pressure decrease of about 20 mmHg.

SMILES	degradation by / resistance towards cleavage by ACE [1]	pIC50 [2]	other results
C[C@H](C(=O)N[C@H](Cc1ccccc1)NC(=O)[C@H](CCCCN)NC(=O)[C@@H]1CCC(=O)N1)C(=O)N1C[C@@H](Sc2ccccc2)C[C@H]1C(=O)O [(b), Glp--Lys--gPhe--(R)mAla--Pro(S--Ph)--OH]	complete resistance		
C[C@H](NC(=O)[C@H](Cc1ccccc1)NC(=O)[C@H](CCCCN)NC(=O)[C@@H]1CCC(=O)N1)C(=O)N1CCC[C@H]1C(=O)O [(c), Glp--Lys--Phe--Ala--Pro--OH] ([pGlu]KFAP-OH)	quickly degraded	7.00	
C[C@H](NC(=O)[C@H](Cc1c[nH]c2ccccc12)NC(=O)[C@H](CCCCN)NC(=O)[C@@H]1CCC(=O)N1)C(=O)N1CCC[C@H]1C(=O)O [(d), Glp--Lys--Trp--Ala--Pro--OH] ([pGlu]KWAP-OH)	quickly degraded	7.00	control of reno-vascular hypertension [3]: capable of controlling; inhibitory activity after preincubation with the angiotensin converting enzyme [4]: complete loss of inhibitory activity; CNS-mediated hypertensive and tachycardic action of angiotensin I (angiotensin I): inhibits; in vivo activity of bradykinin (bradykinin): potentiates
C[C@H](NC(=O)[C@H](Cc1ccccc1)NC(=O)[C@H](CCCCN)NC(=O)[C@@H]1CCC(=O)N1)C(=O)N1C[C@@H](Sc2ccccc2)C[C@H]1C(=O)O [(e), Glp--Lys--Phe--Ala--Pro(S--Ph)--OH] ([pGlu]KFA[X1]-OH)	quickly degraded	7.22	
C[C@@H](C(=O)N[C@H](Cc1ccccc1)NC(=O)[C@H](CCCCN)NC(=O)[C@@H]1CCC(=O)N1)C(=O)N1CCC[C@H]1C(=O)O [(f), Glp--Lys--gPhe--(S)mAla--Pro--OH]	complete resistance		
C[C@H](C(=O)N[C@H](Cc1ccccc1)NC(=O)[C@H](CCCCN)NC(=O)[C@@H]1CCC(=O)N1)C(=O)N1CCC[C@H]1C(=O)O [(g), Glp--Lys--gPhe--(R)mAla--Pro--OH]	complete resistance		
CC(C(=O)N[C@H](Cc1ccccc1)NC(=O)[C@H](CCCCN)NC(=O)[C@@H]1CCC(=O)N1)C(=O)N1CCC[C@H]1C(=O)O (stereo partly drawn) [Glp-Lys-gPhe-mAla-Pro-OH]			IC50 relative to that of the natural product (BPP5a) or the uninverted peptide Glp-Lys-Phe-Ala-Pro-OH ([2]; in vitro): more than 1000 times higher
C[C@@H](C(=O)N[C@H](Cc1ccccc1)NC(=O)[C@H](CCCCN)NC(=O)[C@@H]1CCC(=O)N1)C(=O)N1C[C@@H](Sc2ccccc2)C[C@H]1C(=O)O [compound (a), Glp--Lys--gPhe--(S)mAla--Pro(S--Ph)--OH]	complete resistance		blood pressure decrease [5]: about 20 mmHg
